Source: patent US20250179022A1, “COMPOUND USED AS TYK2 INHIBITOR, PREPARATION METHOD THEREFOR, AND PHARMACEUTICAL USE THEREOF” (SHANGHAI ZHIGEN PHARMACEUTICAL & TECHNOLOGY CO. LTD., priority 2022, published 2025)

Legend:
TYK2 = biological target: T1, TYK2 (Homo sapiens, UniProt P29597, E957D); experiment: TYK2 kinase activity inhibition assay (Ba/F3-FL-TYK2-E957D cell proliferation, CellTiter-Glo); format: cell-based; conditions: 72 h
T1 construct: host or cells: Ba/F3 (murine B lymphocytes)
Experimental: The TYK2 kinase gene was introduced into wild-type murine-derived B lymphocytes (BaF3) to construct the Ba/F3-FL-TYK2-E957D stable cell line.
In this experiment, the inhibitory effect of the compounds on the proliferation of Ba/F3-FL-TYK2-E957D cells were tested, apoptosis was detected, and the IC50 value was calculated. The inhibitory activity of the compounds against TYK2 kinase was evaluated based on the IC50 value.
The tested compounds, powder and stored at room temperature, were prepared into 10 mM stock solution with DMSO and stored at −20° C. away from light for use.
Compounds were prepared into dilute solutions which was 1000 times of the final concentration. The compound was prepared into 20-times of the final concentration by diluting the compound with culture medium. 2 ul of 1000-times compound was added to per well to 98 ul of culture medium.
Cells (provided by Sundia Pharmaceutical Technology (Shanghai) Co., Ltd.) were resuspended and counted using an automated cell counter. The cell suspension was diluted to the desired density based on BaF3 seeding density of 2000 cells per well. Each well was plated with 95 ul of cells and incubated at 37° C. for stable equilibrium. 5 ul of 20-times compound was added to each well, with the wells to which the same volume of DMSO was added as a control.
The cell plate was equilibrated to room temperature. 40 ul CellTiter-Glo® Reagent was added to each well, shaken for 2 minutes and allowed to stand for 10 minutes. Detected with SpectraMax Paradigm.
• (1) IC50 was calculated using GraphPad Prism 5. • (2) % Inh=(Max signal−Compound signal)/(Max signal−Min signal)×100. • (3) Max signal was the positive control well with only the same volume of DMSO as the compound. • (4) Min signal was the negative control well with only the culture medium.

[1] = test system: IFN-α-induced STAT phosphorylation; experiment: IFN-α-induced STAT phosphorylation in human whole blood; format: cell-based; conditions: human whole blood, 20 ng/ml IFN-α, pSTAT5 in CD3-positive cells; read-out: IC50, IFN-α inflammatory pathway (IFN-α-induced STAT phosphorylation)
Excerpt: The cytokine receptor attached to TYK2 mediates the signaling of type 1 interferon (IFN-α), which has been identified as the most important inflammatory factor of the autoimmune system. Human whole blood is induced with IFN-α, and TYK2 from lymphocytes in whole blood triggered STAT phosphorylation, which mediated subsequent inflammatory signaling. Therefore, TYK2 inhibitors have an inhibitory effect on IFN-α signaling, and the stronger the TYK2 inhibitory activity, the lower the level of STAT phosphorylation, and the stronger the corresponding anti-inflammatory effect.
In this experiment, the ability of the compounds to inhibit IFN-α-induced STAT phosphorylation in human whole blood were tested, and the IC50 values were calculated. The anti-inflammatory activity of the compounds was evaluated at the tissue level and evaluation of the inhibitory activity of compounds on the IFN-α inflammatory pathway based on the IC50 value.
The tested compound, powder and stored at room temperature, prepared into 10 mM stock solution with DMSO and stored at −80° C. in the refrigerator.
1× Fix/Lysis solution preparation: 5× Fix/Lysis and ddH2O were diluted according to 1:4 and preheated in 37° C. incubator, waiting for use.
Flow cytometric staining buffer preparation: 1 g of bovine serum albumin (BSA) and 1 mL of EDTA (0.5 M) solution were added to 500 mL of phosphate buffer solution (PBS) and stored at 4° C. in the refrigerator.
Compound dilution solution: 0.5 g of bovine serum albumin (BSA) was added to 500 mL of phosphate buffer solution (PBS), and stored at 4° C. in the refrigerator.
50 μg/mL IFN-alpha was diluted to 400 ng/mL with Compound Diluent and set aside.
67.5 μL of human whole blood was added to a 96-well plate using a 300 μL electric volley gun. 3.5 μL of prepared test compound was added, mixed well and placed in the cell culture incubator. After 60 min incubation, 400 ng/mL IFN-α (Biolegend 592702, final concentration 20 ng/ml) was added. The obtained was mixed well and placed in the cell culture incubator to continue incubation for 15 min.
After cytokine stimulation, 5 ul of PE-CD3 (BD 555333) antibody was added to each well, mixed and incubation was continued at 4° C. in the refrigerator. At the end, whole blood was transferred to a 96-well deep-well plate using a volley gun, pre-warmed 1× Fix/Lysis solution was added, and cells were lysed and fixed for 12 minutes at 37° C. in an incubator. After being washed, 400 μL of Perm III solution was added, vortexed and incubated on ice for 30 minutes. Cells were then stained by 100 μL of APC-pSTAT5 (1:100) antibody for 50 min at room temperature. This was followed by flow-through instrumentation. The expression of pSTAT5 was quantified by median fluorescence intensity after gating the CD3-positive signaling cluster.

[2] = In vivo pharmacokinetic experiments in Beagle dogs (oral); conditions: for Cmax / MRT / half-life: male, dog, plasma
Experimental: Experimental Methods: Healthy male Beagle dogs were randomly grouped into 3 […] in each group, and were given the test compounds orally. Before the gavage experiment, the dogs were fasted for 12 h, drank water freely, and were uniformly fed for 4 h after the administration of the drug. 0.083, 0.25, 0.5, 1.0, 2.0, 4.0, 6.0, 8.0, 10 and 24 h after administration; about 600 μL of blood was collected from the forelimb or hindlimb at the above set time points and placed in EDTA-K2 tubes, and the whole blood was collected and stored temporarily in an ice-water bath, and then centrifuged at least 3500 rpm for 10 min within 30 min, and the plasma was separated and frozen in a −70° C. refrigerator for testing.

[3] = In vivo pharmacokinetic experiment in rats (oral); set-up: species or system SD rats; conditions: 20 mg/kg
Experimental: Experimental method: Healthy male SD rats were randomly grouped into 3 rats in each group and given the test compound orally. The rats were fasted for 12 h before the gavage experiment, and drank water freely, and were fed uniformly for 4 h after the administration of the compounds. Before (0 h) and 0.25, 0.5, 1.0, 2.0, 4.0, 6.0, 8.0 and 24 h after the administration of the test compounds, 0.2 mL of blood was collected from the jugular vein at the above set time points and placed in EDTA-K2 tubes, and the whole blood was collected and stored temporarily in an ice-water bath, and then centrifuged at 11,000 rpm for 5 min within 30 min, the plasma was separated, and frozen at −70° C. in a refrigerator for testing.

T1 sequence (P29597 whole entry E957D): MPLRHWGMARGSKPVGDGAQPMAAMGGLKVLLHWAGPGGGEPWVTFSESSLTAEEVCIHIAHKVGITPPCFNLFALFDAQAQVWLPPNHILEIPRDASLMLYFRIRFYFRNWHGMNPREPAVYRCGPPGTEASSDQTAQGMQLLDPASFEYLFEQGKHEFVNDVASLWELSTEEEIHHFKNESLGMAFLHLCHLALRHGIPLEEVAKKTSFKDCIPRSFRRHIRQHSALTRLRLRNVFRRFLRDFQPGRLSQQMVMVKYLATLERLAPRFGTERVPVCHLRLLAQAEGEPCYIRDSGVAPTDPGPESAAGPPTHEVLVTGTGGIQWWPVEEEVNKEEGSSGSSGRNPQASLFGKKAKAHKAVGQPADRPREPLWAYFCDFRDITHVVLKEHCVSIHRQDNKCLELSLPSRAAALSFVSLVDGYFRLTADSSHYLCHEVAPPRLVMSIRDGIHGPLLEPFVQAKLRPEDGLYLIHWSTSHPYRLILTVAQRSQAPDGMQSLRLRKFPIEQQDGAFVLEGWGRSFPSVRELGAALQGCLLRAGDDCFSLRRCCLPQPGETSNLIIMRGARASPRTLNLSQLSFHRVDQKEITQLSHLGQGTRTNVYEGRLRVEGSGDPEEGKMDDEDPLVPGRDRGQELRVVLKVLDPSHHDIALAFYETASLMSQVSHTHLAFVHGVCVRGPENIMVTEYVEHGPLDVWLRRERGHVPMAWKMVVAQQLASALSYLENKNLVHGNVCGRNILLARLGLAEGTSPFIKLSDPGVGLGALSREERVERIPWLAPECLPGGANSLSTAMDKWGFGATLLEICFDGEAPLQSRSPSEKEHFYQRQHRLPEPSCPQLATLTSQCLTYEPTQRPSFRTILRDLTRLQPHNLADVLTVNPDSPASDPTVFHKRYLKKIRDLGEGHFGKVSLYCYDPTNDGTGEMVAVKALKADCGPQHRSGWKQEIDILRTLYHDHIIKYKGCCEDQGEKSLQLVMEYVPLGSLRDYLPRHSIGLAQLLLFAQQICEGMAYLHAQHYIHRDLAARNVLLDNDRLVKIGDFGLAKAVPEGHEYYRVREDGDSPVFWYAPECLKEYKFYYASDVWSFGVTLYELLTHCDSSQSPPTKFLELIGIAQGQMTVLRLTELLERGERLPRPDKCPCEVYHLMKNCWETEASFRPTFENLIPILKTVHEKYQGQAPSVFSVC

[2H]C([2H])([2H])NC(=O)c1nnc(NC(=O)C2CC2)cc1Nc1ncccc1S(C)(=O)=NC (centres unmarked) [Example 2, 6-(cyclopropylcarboxamido)-4-((3-(N,S-dimethylsulfoximino)pyridin-2-yl)amino)-N-(methyl-d3)pyridazine-3-carboxamide]
IC50 (TYK2): 2.4 nM

CN=S(C)(=O)c1ccc(N)nc1Nc1cc(NC(=O)C2CC2)nnc1C(=O)NC (centres unmarked) [Example 7, 4-((6-amino-3-(N,S-dimethylsulfoximino)pyridin-2-yl)amino)-6-(cyclopropylcarboxamido)-N-methylpyridazine-3-carboxamide]
IC50 [1]: 22.1 nM

CN=S(C)(=O)c1cc(Br)cnc1Nc1cc(NC(=O)C2CC2)nnc1C(=O)NC (centres unmarked) [Example 13, 4-((5-bromo-3-(N,S-dimethylsulfoximino)pyridin-2-yl)amino)-6-(cyclopropylcarboxamido)-N-methylpyridazine-3-carboxamide]
IC50 (TYK2): 3.9 nM

CN=S(C)(=O)c1cc(OC)cnc1Nc1cc(NC(=O)C2CC2)nnc1C(=O)NC (centres unmarked) [Example 14, 6-(cyclopropylamido)-4-((3-(N,S-dimethylsulfoximino)-5-methoxypyridin-2-yl)amino)-N-methylpyridazine-3-carboxamide]
IC50 (TYK2): 3.7 nM

CN=S(C)(=O)c1cc(C)cnc1Nc1cc(NC(=O)C2CC2)nnc1C(=O)NC (centres unmarked) [Example 15, 6-(cyclopropylcarboxamido)-4-((3-(N,S-dimethylsulfoximino)-5-methylpyridin-2-yl)amino)-N-methylpyridazine-3-carboxamide]
IC50 [1]: 18 nM

CN=S(C)(=O)c1cc(OCCCOC)cnc1Nc1cc(NC(=O)C2CC2)nnc1C(=O)NC (centres unmarked) [Example 16, 6-(cyclopropylcarboxamido)-4-((3-(N,S-dimethylsulfoximino)-5-(3-methoxypropoxy)pyridin-2-yl)amino)-N-methylpyridazine-3-carboxamide]
IC50 (TYK2): 3.5 nM

[2H]C([2H])([2H])NC(=O)c1nnc(NC(=O)C2CC2)cc1Nc1nc(N)c(Br)cc1[S@@](C)(=O)=NC [Example 30, (R)-4-((6-amino-5-bromo-3-(N,S-dimethylsulfoximino)pyridin-2-yl)amino)-6-(cyclopropylformyl)-N-(methyl-d3)pyridazine-3-carboxamide]
AUC ([2]; 2 mg/kg): 8454 ngh/mL | Cmax ([2]; 2 mg/kg): 625 ng/mL | MRT ([2]; 2 mg/kg): 11.8 h | half-life ([2]; 2 mg/kg): 8.61 h

CN=S(C)(=O)c1cc2cc[nH]c2nc1Nc1cc(NC(=O)C2CC2)nnc1C(=O)NC (centres unmarked) [Example 31, 6-(cyclopropylcarboxamido)-4-((5-(N,S-dimethylsulfoximino)-1H-pyrrolo[2,3-b]pyridin-6-yl)amino)-N-methylpyridazine-3-carboxamide]
IC50 (TYK2): 1.1 nM

CN=S(C)(=O)c1cc2c(Cl)c(Cl)[nH]c2nc1Nc1cc(NC(=O)C2CC2)nnc1C(=O)NC (centres unmarked) [Example 33, 6-(cyclopropylamido)-4-((2,3-dichloro-5-(N,S-dimethylsulfoximino)-1H-pyrrolo[2,3-b]pyridin-6-yl)amino)-N-methylpyridazine-3-carboxamide]
IC50 (TYK2): 1.2 nM

[2H]C([2H])([2H])N=[S@](C)(=O)c1cc(Cl)c(N)nc1Nc1cc(NC(=O)C2CC2)nnc1C(=O)NC([2H])([2H])[2H] [Example 40, (R)-4-((6-amino-5-chloro-3-(S-methyl-N-(methyl-d3)sulfonylimino)pyridin-2-yl)amino)-6-(cyclopropylcarboxamide)-N-(methyl-d3)pyridazine-3-carboxamide]
IC50 (TYK2): 0.4 nM | AUC [3]: 22029 ngh/mL | F [3]: 109% | Cmax ([3]; male, SD, rat, plasma): 2950 ng/mL | MRT ([3]; male, SD, rat, plasma): 4.7 h | half-life ([3]; male, SD, rat, plasma): 2.65 h | AUC ([2]; 10 mg/kg): 79882 ngh/mL | F ([2]; 10 mg/kg): 136.6% | Cmax ([2]; 10 mg/kg): 4850 ng/mL | MRT ([2]; 10 mg/kg): 12.7 h | half-life ([2]; 10 mg/kg): 9.28 h

[2H]C([2H])([2H])N=[S@](C)(=O)c1cc(Br)c(N)nc1Nc1cc(NC(=O)C2CC2)nnc1C(=O)NC([2H])([2H])[2H] [Example 41, (R)-4-((6-amino-5-bromo-3-(S-methyl-N-(methyl-d3)sulfonylimino)pyridin-2-yl)amino)-6-(cyclopropylcarboxamide)-N-(methyl-d3)pyridazine-3-carboxamide]
IC50 (TYK2): 0.4 nM

[2H]C([2H])([2H])N=[S@](C)(=O)c1cc(I)c(N)nc1Nc1cc(NC(=O)C2CC2)nnc1C(=O)NC([2H])([2H])[2H] [Example 42, (R)-4-((6-amino-5-iodo-3-(S-methyl-N-(methyl-d3)sulfonylimino)pyridin-2-yl)amino)-6-(cyclopropylcarboxamide)-N-(methyl-d3)pyridazine-3-carboxamide]
IC50 (TYK2): 0.4 nM

[2H]C([2H])([2H])N=[S@](C)(=O)c1cc(C2CC2)c(N)nc1Nc1cc(NC(=O)C2CC2)nnc1C(=O)NC([2H])([2H])[2H] [Example 43, (R)-4-((6-amino-5-cyclopropyl-3-(S-methyl-N-(methyl-d3)sulfonylimino)pyridin-2-yl)amino)-6-(cyclopropylcarboxamide)-N-(methyl-d3)pyridazine-3-carboxamide]
IC50 (TYK2): 1.1 nM

[2H]C([2H])([2H])N=[S@](C)(=O)c1cc(C=C)c(N)nc1Nc1cc(NC(=O)C2CC2)nnc1C(=O)NC([2H])([2H])[2H] [Example 44, (R)-4-((6-amino-3-(S-methyl-N-(methyl-d3)sulfonylimino)-5-vinylpyridin-2-yl)amino)-6-(cyclopropylcarboxamide)-N-(methyl-d3)pyridazine-3-carboxamide]
IC50 (TYK2): 0.3 nM

[2H]C([2H])([2H])N=[S@](C)(=O)c1cc(C#CC)c(N)nc1Nc1cc(NC(=O)C2CC2)nnc1C(=O)NC([2H])([2H])[2H] [Example 45, (R)-4-((6-amino-3-(S-methyl-N-(methyl-d3)sulfonylimino)-5-(propynyl-1-yl)pyridin-2-yl)amino)-6-(cyclopropylcarboxamide)-N-(methyl-d3)pyridazine-3-carboxamide]
IC50 (TYK2): 0.1 nM

[2H]C([2H])([2H])N=[S@](C)(=O)c1cc(C#CC2CC2)c(N)nc1Nc1cc(NC(=O)C2CC2)nnc1C(=O)NC([2H])([2H])[2H] [Example 46]
IC50 (TYK2): 0.1 nM
